Assay [1] concerns the target Dopamine D3 receptor (Homo sapiens (Human), UniProt P35462). The assay can be described thus: Dopamine D3 radioligand binding assay. The conditions noted are these: 10.0 μM.
Assay [2] has as its target Dopamine D5 receptor (Homo sapiens (Human), UniProt P21918). The assay can be described thus: Dopamine D5 radioligand binding assay. The conditions noted are these: 10.0 μM.
For assay [3], the target named is Dopamine Transporter (DAT) (Homo sapiens (Human), UniProt Q01959). The assay can be described thus: Dopamine Transporter (DAT) radioligand binding assay. The conditions noted are these: 10.0 μM.
Assay [4] has as its target Dopamine D2L receptor (Homo sapiens (Human), UniProt P14416). The assay can be described thus: Dopamine D2L radioligand binding assay. As to conditions: 10.0 μM.
Assay [5] has as its target Dopamine D1 receptor (Homo sapiens (Human), UniProt P21728). Nature of the assay: Dopamine D1 radioligand binding assay. The conditions noted are these: 10.0 μM.
Assay [6] addresses PDE7B (Homo sapiens (Human), UniProt Q9NP56). Nature of the assay: initial PDE7B inhibition assay, different assay methodology. It is filed as biochemical. The conditions noted are these: reliability questioned.
For assay [7], the target named is Monoamine Oxidase MAO-B (Homo sapiens (Human), UniProt P27338). The assay can be described thus: Monoamine Oxidase MAO-B enzyme assay. It is filed as biochemical.
Chain of Monoamine Oxidase MAO-B (P27338 whole entry, looked up): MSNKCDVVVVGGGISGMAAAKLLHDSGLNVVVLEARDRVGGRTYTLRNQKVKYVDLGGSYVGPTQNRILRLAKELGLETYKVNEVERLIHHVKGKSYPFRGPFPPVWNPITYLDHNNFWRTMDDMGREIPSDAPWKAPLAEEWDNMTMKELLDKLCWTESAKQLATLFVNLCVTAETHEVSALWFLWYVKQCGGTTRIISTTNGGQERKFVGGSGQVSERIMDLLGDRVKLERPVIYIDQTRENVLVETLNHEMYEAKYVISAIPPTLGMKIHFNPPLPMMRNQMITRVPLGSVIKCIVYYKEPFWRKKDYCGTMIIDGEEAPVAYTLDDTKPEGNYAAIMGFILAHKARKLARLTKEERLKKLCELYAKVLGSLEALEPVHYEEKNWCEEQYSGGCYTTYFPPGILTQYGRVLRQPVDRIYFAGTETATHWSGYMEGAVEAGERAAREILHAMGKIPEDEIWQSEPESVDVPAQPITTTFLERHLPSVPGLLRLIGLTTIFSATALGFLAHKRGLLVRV
Assay [8] deals with Catechol-O-Methyltransferase (COMT) (Sus scrofa, UniProt D3K5L3). Nature of the assay: biochemical. The assay is classed as biochemical, pig. The conditions noted are these: 10.0 μM.
Chain of Catechol-O-Methyltransferase (COMT) (D3K5L3 1-270): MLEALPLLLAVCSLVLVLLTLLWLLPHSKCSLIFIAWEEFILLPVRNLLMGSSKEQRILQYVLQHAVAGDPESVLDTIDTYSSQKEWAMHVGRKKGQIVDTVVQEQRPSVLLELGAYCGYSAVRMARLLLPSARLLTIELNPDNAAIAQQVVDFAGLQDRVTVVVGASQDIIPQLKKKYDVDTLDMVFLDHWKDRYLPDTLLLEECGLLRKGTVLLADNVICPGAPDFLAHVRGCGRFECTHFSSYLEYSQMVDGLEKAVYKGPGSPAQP
The target in assay [9] is Tyrosine Hydroxylase (Rattus norvegicus (Rat), UniProt P04177). The assay can be described thus: Tyrosine Hydroxylase enzyme assay. It is filed as biochemical. The conditions noted are these: 10.0 μM. How it is done:
Tyrosine Hydroxylase was assayed as described in Roskoski, R., Jr., et al., J. Biochem 218:363-370 (1993) with the following modifications. Tyrosine Hydroxylase was isolated from Wistar rat brain. The substrate was 100 μM L-[3,5-^3H]Tyrosine+L-Tyrosine. The vehicle control was 1% DMSO. Compound OM69 was tested at 10 μM in incubation buffer (125 mM MES, pH 6.0, 0.5 mg/ml Catalase, 12.5 mM DTT, 0.5 mM (6R)-5,6,7,8-Tetrahydrobiopterin). The reaction was pre-incubated for 15 minutes at 37° C. Tyrosine Hydroxylase enzyme was added, and the reaction was incubated for 20 minutes at 37° C. [^3H]-H20 was quantitated.

The target in assay [10] is gabapentin receptor (Rattus norvegicus, UniProt P54290). The assay can be described thus: Gabapentin radioligand binding assay. The conditions noted are these: 10.0 μM.
Chain of gabapentin receptor (P54290 25-944 limits assumed): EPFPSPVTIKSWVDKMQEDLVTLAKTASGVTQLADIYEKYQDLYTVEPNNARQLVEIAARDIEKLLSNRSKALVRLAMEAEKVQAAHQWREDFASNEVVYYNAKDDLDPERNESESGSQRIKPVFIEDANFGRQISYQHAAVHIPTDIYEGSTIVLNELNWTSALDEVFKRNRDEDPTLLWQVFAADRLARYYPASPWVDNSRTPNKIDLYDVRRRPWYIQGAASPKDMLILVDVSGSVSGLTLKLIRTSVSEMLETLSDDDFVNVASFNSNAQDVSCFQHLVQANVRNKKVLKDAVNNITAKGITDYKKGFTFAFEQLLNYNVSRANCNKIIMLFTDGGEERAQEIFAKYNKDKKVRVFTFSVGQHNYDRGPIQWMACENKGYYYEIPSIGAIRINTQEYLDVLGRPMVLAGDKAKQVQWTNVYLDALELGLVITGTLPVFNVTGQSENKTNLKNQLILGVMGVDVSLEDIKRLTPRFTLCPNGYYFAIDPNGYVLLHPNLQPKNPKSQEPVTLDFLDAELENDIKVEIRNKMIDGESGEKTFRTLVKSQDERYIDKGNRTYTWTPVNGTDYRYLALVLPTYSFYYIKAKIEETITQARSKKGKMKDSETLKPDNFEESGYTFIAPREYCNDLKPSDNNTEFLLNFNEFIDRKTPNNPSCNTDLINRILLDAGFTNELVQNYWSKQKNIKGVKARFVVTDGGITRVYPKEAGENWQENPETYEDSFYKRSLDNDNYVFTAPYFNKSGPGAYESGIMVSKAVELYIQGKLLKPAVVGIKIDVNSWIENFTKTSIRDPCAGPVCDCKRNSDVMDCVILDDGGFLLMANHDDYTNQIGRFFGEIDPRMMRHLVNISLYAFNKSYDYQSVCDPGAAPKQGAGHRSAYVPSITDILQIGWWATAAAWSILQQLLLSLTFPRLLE
Chain of gabapentin receptor (P54290 945-1091 limits assumed): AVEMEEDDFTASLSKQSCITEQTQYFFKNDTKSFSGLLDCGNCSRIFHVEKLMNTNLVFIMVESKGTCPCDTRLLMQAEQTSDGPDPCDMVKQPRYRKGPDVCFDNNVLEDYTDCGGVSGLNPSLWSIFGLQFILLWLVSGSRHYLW
In assay [11] the target is Dopamine D4.2 receptor (Homo sapiens (Human), UniProt P21917, DEL265-296). The assay can be described thus: Dopamine D4.2 radioligand binding assay. The conditions noted are these: 10.0 μM.
Chain of Dopamine D4.2 receptor (P21917 other isoform, or with tags, fused parts or gaps del 265-296): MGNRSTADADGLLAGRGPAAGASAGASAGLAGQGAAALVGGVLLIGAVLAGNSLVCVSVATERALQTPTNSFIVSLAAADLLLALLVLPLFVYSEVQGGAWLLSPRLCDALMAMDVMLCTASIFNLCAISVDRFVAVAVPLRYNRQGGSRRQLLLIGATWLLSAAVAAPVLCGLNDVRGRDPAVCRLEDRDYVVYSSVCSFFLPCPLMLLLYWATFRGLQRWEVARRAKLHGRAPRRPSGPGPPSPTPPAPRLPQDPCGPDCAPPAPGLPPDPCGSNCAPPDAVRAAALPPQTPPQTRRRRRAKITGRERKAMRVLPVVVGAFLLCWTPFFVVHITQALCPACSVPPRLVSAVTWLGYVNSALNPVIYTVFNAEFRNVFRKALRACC
The target of assay [12] is Adenosine A2A receptor (Homo sapiens (Human), UniProt P29274). The assay can be described thus: Adenosine A2A receptor radioligand binding assay. As to the method:
An Adenosine A2A receptor radioligand binding assay was carried out as described in Varani, K., et al., Br. J. Pharmacol. 117:1693-1701, 1996, with the following modifications. Human recombinant A2A receptor was expressed in HEK-293 cells. The ligand used in the assay was 0.05 μM [^3H]CGS-21680. The non-specific ligand was 50 μM NECA. The vehicle control was 1% DMSO. Compound OM69 was tested at 10 μM in incubation buffer (50 mM Tris-HCL, pH 7.4, 10 mM MgCl2, 1 mM EDTA, 2 U/mL Adenosine Deaminase). The reaction was incubated for 90 minutes at 25° C. Radioligand binding was quantitated. […]

In general, IC50 refers to the midpoint of a concentration-inhibition curve.

Chain of Adenosine A2A receptor (P29274 whole entry): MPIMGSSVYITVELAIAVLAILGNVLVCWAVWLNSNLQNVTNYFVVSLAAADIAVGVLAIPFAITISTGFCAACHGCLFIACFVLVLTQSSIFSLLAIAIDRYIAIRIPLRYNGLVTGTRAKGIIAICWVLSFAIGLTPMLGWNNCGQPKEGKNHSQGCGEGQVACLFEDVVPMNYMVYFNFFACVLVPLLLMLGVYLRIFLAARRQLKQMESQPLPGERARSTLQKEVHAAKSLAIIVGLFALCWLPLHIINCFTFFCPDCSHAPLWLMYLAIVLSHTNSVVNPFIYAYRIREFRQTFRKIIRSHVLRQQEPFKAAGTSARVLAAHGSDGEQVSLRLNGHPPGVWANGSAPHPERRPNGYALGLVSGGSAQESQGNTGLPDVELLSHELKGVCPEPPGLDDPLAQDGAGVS
Chain of Dopamine D2L receptor (P14416 whole entry): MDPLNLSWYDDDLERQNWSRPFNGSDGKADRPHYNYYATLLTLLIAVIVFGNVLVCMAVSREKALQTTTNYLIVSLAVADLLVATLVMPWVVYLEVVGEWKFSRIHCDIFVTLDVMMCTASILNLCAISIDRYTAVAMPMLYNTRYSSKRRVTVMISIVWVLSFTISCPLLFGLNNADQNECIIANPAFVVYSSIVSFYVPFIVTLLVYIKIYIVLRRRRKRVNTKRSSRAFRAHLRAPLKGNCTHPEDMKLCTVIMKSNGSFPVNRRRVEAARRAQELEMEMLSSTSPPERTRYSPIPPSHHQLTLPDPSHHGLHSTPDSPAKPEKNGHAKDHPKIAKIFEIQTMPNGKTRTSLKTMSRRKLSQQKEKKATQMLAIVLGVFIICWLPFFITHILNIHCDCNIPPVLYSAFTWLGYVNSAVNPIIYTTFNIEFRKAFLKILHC
Chain of Dopamine D3 receptor (P35462 whole entry): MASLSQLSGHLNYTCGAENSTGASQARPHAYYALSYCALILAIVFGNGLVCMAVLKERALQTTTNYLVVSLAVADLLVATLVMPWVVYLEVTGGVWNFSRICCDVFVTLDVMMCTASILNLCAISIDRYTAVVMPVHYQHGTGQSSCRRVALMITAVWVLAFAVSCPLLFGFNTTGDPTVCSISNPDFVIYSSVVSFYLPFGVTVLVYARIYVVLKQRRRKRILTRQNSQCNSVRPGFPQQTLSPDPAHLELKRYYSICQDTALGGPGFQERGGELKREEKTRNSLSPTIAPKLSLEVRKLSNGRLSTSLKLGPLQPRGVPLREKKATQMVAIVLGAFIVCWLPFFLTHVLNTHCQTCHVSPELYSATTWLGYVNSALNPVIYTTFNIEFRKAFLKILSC
Chain of Dopamine D1 receptor (P21728 whole entry): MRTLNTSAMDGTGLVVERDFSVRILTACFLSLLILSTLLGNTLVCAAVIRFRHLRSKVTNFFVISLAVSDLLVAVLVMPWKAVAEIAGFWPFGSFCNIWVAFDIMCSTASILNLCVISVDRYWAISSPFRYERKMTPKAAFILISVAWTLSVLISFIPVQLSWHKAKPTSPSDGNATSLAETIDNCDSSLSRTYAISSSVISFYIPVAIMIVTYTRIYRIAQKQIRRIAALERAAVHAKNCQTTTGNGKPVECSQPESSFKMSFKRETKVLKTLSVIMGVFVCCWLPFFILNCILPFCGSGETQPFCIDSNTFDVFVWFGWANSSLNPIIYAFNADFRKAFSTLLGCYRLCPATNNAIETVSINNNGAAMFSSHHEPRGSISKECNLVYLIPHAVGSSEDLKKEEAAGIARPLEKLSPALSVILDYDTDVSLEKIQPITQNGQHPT
Chain of PDE7B (Q9NP56 whole entry, species assumed): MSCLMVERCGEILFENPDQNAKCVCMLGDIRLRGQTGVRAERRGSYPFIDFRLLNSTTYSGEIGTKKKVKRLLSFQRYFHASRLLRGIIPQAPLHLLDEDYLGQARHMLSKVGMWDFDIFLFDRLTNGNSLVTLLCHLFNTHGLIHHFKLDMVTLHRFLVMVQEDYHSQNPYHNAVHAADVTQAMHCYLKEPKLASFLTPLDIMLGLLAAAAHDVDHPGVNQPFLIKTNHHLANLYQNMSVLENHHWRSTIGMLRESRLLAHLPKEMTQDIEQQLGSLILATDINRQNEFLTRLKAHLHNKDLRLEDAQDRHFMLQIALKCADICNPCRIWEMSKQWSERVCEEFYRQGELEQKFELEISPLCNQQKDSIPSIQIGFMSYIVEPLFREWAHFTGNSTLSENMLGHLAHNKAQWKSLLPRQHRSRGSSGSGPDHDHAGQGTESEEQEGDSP
Chain of Tyrosine Hydroxylase (P04177 whole entry): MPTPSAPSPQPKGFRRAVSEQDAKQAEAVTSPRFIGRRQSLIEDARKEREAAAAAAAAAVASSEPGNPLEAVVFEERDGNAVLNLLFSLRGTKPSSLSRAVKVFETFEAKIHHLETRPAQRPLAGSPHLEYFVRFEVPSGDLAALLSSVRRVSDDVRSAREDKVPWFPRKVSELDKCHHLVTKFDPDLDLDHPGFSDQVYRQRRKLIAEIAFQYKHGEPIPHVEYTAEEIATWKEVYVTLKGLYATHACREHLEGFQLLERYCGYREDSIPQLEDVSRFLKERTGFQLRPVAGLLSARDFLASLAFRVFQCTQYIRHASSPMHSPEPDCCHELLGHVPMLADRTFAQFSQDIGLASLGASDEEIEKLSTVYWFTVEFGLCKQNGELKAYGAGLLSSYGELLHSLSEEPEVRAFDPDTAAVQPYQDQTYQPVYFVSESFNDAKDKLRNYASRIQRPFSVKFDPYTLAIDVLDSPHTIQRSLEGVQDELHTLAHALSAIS

Consider `COc1cc(N)ccc1-c1cc2c(c(=O)[nH]1)C(C1CCCCC1)N=[N+]2C` (centres unmarked) [OM69], for which the “percent inhibition of ligand binding to Dopamine D3” value in [1] was −13.0%. In [2], the “percent inhibition of ligand binding to Dopamine D5” value amounted to 4.0%. Moreover, in [3], the “percent inhibition of ligand binding to Dopamine Transporter (DAT)” value is recorded as 18.0%. Moreover, the “percent inhibition of ligand binding to Dopamine D2L” value in assay [4] turned out to be 4.0%. The “percent inhibition of ligand binding to Dopamine D1” value in assay [5] is −5.0%. The concentration for half-maximal inhibition (IC50) in [6] is 0.0969 µM; in [7] (estimated from 27% inhibition at 1 μM, read-out: MAO-B IC50 indicated by the percentage inhibition) it was ~2.7 µM. The “percent inhibition of MAO-B enzymatic activity” value came to 49.0% in assay [7] (Exp #1, 10.0 μM); 27% in assay [7] (Exp #2, 1.0 μM); 67.0% in [7] (Exp #2, 10.0 μM). The “inhibition of MAO-B at brain concentration” value in [7] (if present in the brain at 17 nM) is reported as “less than 0.7%”. The “percent inhibition of COMT enzymatic activity” value in assay [8] amounted to 19.0%. The “percent inhibition of Tyrosine Hydroxylase enzymatic activity” value in assay [9] was 4.0%. Further, in [10], the “percent inhibition of ligand binding, Gabapentin” value is on record as 15.0%. Moreover, the “percent inhibition of ligand binding to Dopamine D4.2” value in assay [11] was −16.0%. Moreover, the “percent inhibition of ligand binding to Adenosine A2A Receptor” value in assay [12] (10.0 μM) was 41%. Also, the “percent occupation of A2A receptors” value in assay [12] (brain level 8.5 to 17 nM (dose 0.1 mg/kg), using IC50 of 10 μM) was “about 0.17%”.

These data come from patent US8637528B2, “Use of PDE7 inhibitors for the treatment of movement disorders” (Omeros Corporation, priority 2007, dated 2014).
